Measured values: patent US20220324862A1, “PYRIDOPYRIMIDINONE COMPOUNDS” (Acerand Therapeutics (USA) Limited, priority 2021, published 2022)

Molecular target: T1, protein-protein interaction between SOS1 and KRAS-G12D (Homo sapiens, UniProt Q07889)
T1 construct: The purified GST-SOS1 catalytic domain (residues 564-1049) was first diluted in assay buffer; made in house; host or cells: E. coli BL21 (DE3) for SOS1; E. coli BL21 carrying a BirA plasmid for KRAS-G12D
T1 sequence (Q07889 564-1049): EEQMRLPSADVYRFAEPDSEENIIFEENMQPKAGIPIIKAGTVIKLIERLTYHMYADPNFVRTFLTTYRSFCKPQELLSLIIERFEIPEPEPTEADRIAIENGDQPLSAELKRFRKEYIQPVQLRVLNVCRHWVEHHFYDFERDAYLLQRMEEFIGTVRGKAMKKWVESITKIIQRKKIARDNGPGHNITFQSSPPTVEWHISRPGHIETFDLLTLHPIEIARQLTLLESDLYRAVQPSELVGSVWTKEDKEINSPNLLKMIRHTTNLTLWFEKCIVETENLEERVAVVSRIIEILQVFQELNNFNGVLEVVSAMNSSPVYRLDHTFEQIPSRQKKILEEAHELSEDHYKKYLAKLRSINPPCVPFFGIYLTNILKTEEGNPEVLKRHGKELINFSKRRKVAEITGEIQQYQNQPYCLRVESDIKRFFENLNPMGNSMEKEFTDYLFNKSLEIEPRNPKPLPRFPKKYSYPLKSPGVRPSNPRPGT
Assay: HTRF Based Protein-Protein Interaction Assay
Format: binding
Conditions: HTRF; GST-SOS1 2.5 nM, KRAS-G12D 100 nM, GDP 10 uM; read-out: IC50 value, inhibition of SOS1/KRAS-G12D protein-protein interaction
How it was run: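 GST-SOS1 (residues 564-1049, 2.5 nM) preincubated 15 min at 25° C with compound (0.5 nM-10 μM, 3-fold), then biotinylated avi-KRAS-G12D (1-169, 100 nM) with 10 uM GDP added for 60 min. HTRF read after 5 h with anti-GST-Tb cryptate/streptavidin-XL665; buffer HEPES pH 7.5, Brij-35, TCEP, BSA.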

| IC50 | SMILES |
| --- | --- |
| < 100 nM | C#C[C@@H](Nc1nc(C)nc2c1cc(C1(F)CCN(C(C)=O)CC1)c(=O)n2C)c1cccc(C(F)(F)F)c1C [Compound 56, 6-(1-acetyl-4-fluoropiperidin-4-yl)-2,8-dimethyl-4-{[(1R)-1-[2-methyl-3-(trifluoromethyl)phenyl]prop-2-yn-1-yl]amino}-7H,8H-pyrido[2,3-d]pyrimidin-7-one] |
| < 100 nM | C#C[C@@H](Nc1ncnc2c1cc(C1(OC)CCN(C(C)=O)C1)c(=O)n2C)c1cccc(C(F)F)c1F (stereo partly drawn) [Compound 49, 6-(1-acetyl-3-methoxypyrrolidin-3-yl)-4-{[(1R)-1-[3-(difluoromethyl)-2-fluorophenyl]prop-2-yn-1-yl]amino}-8-methyl-7H,8H-pyrido[2,3-d]pyrimidin-7-one] |
| 100 to 200 nM | C#C[C@@H](Nc1ncnc2c1cc(C1(NC(C)=O)CCOCC1)c(=O)n2C)c1cccc(C(F)(F)F)c1C [Compound 58, (R)-N-(4-(8-methy-4-((1-(2-methyl-3-(trifluoromethyl)phenyl)prop-2-yn-1-yl}amino)-7-oxo-7,8-dihydropyrido[2,3-d]pyrimidin-6-yl)tetrahydro-2H-pyran-4-yl)acetamide] |
| < 100 nM | C#C[C@@H](Nc1nc(C)nc2c1cc(C1(O)CCN(C(C)=O)CC1)c(=O)n2C)c1cccc(C(F)(F)F)c1C [Compound 54, 6-(1-acetyl-4-hydroxypiperidin-4-yl)-2,8-dimethyl-4-{[(1R)-1-[2-methyl-3-(trifluoromethyl)phenyl]prop-2-yn-1-yl]amino}-7H,8H-pyrido[2,3-d]pyrimidin-7-one] |
| < 100 nM | C#C[C@@H](Nc1ncnc2c1cc(C1(NC(C)=O)CCN(C(C)=O)CC1)c(=O)n2C)c1cccc(C(F)(F)F)c1C [Compound 57, (R)-N-(1-acetyl-4-(8-methy-4-((1-(2-methyl-3-(trifluoromethyl)phenyl)prop-2-yn-1-yl)amino)-7-oxo-7,8-dihydropyrido[2,3-d]pyrimidin-6-yl)piperidin-4-yl)acetamide] |
| < 100 nM | C#C[C@@H](Nc1nc(C)nc2cc(=O)n(C3(C(F)F)CC3)cc12)c1cccc(C(F)(F)F)c1C [Compound 9, (R)-6-(1-(difluoromethyl)cyclopropyl)-2-methyl-4-((1-(2-methyl-3-(trifluoromethyl)phenyl)prop-2-yn-1-yl)amino)pyrido[4,3-d]pyrimidin-7(6H)-one] |

The next lines start with the molecule.

| SMILES | IC50 |
| --- | --- |
| C#C[C@@H](Nc1nc(C)nc2cc(=O)n(C3CCOCC3)cc12)c1cccc(C(F)(F)F)c1C [Compound 4, (R)-2-methyl-4-((1-(2-methyl-3-(trifluoromethyl)phenyl)prop-2-yn-1-yl)amino)-6-(tetrahydro-2H-pyran-4-yl)pyrido[4,3-d]pyrimidin-7(6H)-one] | < 100 nM |
| C#C[C@@H](Nc1nc(C)nc2c1cc(C1(OC)CCN(C(C)=O)CC1)c(=O)n2C)c1cccc(C(F)(F)F)c1C [Compound 55, 6-(1-acetyl-4-methoxypiperidin-4-yl)-2,8-dimethyl-4-{[(1R)-1-[2-methyl-3-(trifluoromethyl)phenyl]prop-2-yn-1-yl]amino}-7H,8H-pyrido[2,3-d]pyrimidin-7-one] | < 100 nM |
| C#C[C@@H](Nc1ncnc2c1cc(C1(OC)CCN(C(C)=O)CC1)c(=O)n2C)c1cccc(C(F)F)c1F [Compound 48, (R)-6-(1-acetyl-4-methoxypiperidin-4-yl)-4-((1-(3-(difluoromethyl)-2-fluorophenyl)prop-2-yn-1-yl)amino)-8-methylpyrido[2,3-d]pyrimidin-7(8H)-one] | 100 to 200 nM |
| C#C[C@@H](Nc1ncnc2c1cc(C1(O)CCN(C(C)=O)CC1)c(=O)n2C)c1cccc(C(F)F)c1F [Compound 46, 6-(1-acetyl-4-hydroxypiperidin-4-yl)-4-{[(1R)-1-[3-(difluoromethyl)-2-fluorophenyl]prop-2-yn-1-yl]amino}-8-methyl-7H,8H-pyrido[2,3-d]pyrimidin-7-one] | < 100 nM |
| C#C[C@@H](Nc1ncnc2c1cc(C1(O)CCN(C(C)=O)C1)c(=O)n2C)c1cccc(C(F)F)c1F (stereo partly drawn) [Compound 43, 6-(1-acetyl-3-hydroxypyrrolidin-3-yl)-4-{[(1R)-1-[3-(difluoromethyl)-2-fluorophenyl]prop-2-yn-1-yl]amino}-8-methyl-7H,8H-pyrido[2,3-d]pyrimidin-7-one] | 100 to 200 nM |
